The text below walks through data of patent publication US11279690B2, “Inhibitors of glutaminyl cyclase” (VIVORIAN THERAPEUTICS N.V, priority 2017, dated 2022).

One data set deals with hQPCTL (Homo sapiens, UniProt Q9NXS2). Briefly: Inhibitor assay, determination of Ki against the QC isoenzyme at pH 6. In kind it is biochemical. Conditions: read-out: Ki hQPCTL pH6. As to the method:
(§1) For inhibitor testing, the sample composition was the same as described above, except of the putative inhibitory compound added. For a rapid test of QC-inhibition, samples contained 4 mM of the respective inhibitor and a substrate concentration at 1 KM. For detailed investigations of the inhibition and determination of Ki-values, influence of the inhibitor on the auxiliary enzymes was investigated first. […] The inhibitory constant was evaluated by fitting the set of progress curves to the general equation for competitive inhibition using GraFit software. The inhibitor assay was performed at two different pH levels, pH 6.0 and pH 8.0: The respective pH value in the assay solution was adjusted using conventional methods.

In another data set the target is hQC (Homo sapiens, UniProt Q16769). The experiment in a line: QC inhibitor assay, determination of Ki at pH 6.0. Conditions: read-out: Ki hQC pH6.0. In kind it is biochemical. As to the method:
All measurements were performed with a BioAssay Reader HTS-7000Plus for microplates (Perkin Elmer) at 30° C. QC activity was evaluated fluorometrically using H-Gln-βNA. The samples consisted of 0.2 mM fluorogenic substrate, 0.25 U pyroglutamyl aminopeptidase (Unizyme, Horsholm, Denmark) in 0.2 M Tris/HCl, pH 8.0 containing 20 mM EDTA and an appropriately diluted aliquot of QC in a final volume of […]. Excitation/emission wavelengths were 320/410 nm. The assay reactions were initiated by addition of glutaminyl cyclase. QC activity was determined from a standard curve of β-naphthylamine under assay conditions. One unit is defined as the amount of QC catalyzing the formation of 1 μmol pGlu-βNA from H-Gln-βNA per minute under the described conditions.
In a second fluorometric assay, QC was activity determined using H-Gln-AMC as substrate. Reactions were carried out at 30° C. utilizing the NOVOStar reader for microplates (BMG labtechnologies). The samples consisted of varying concentrations of the fluorogenic substrate, 0.1 U pyroglutamyl aminopeptidase (Qiagen) in 0.05 M Tris/HCl, pH 8.0 containing 5 mM EDTA and an appropriately diluted aliquot of QC in a final volume of 250 μl. Excitation/emission wavelengths were 380/460 nm. The assay reactions were initiated by addition of glutaminyl cyclase. QC activity was determined from a standard curve of 7-amino-4-methylcoumarin under assay conditions. The kinetic data were evaluated using GraFit software.
This novel assay was used to determine the kinetic parameters for most of the QC substrates. […] Samples consisted of the respective QC substrate, 0.3 mM NADH, 14 mM α-Ketoglutaric acid and 30 U/ml glutamate dehydrogenase in a final volume of 250 μl. Reactions were started by addition of QC and persued by monitoring of the decrease in absorbance at 340 nm for 8-15 min.
The initial velocities were evaluated and the enzymatic activity was determined from a standard curve of ammonia under assay conditions. All samples were measured at 30° C., using either the […]luor Plus or the Sunrise (both from TECAN) reader for microplates. Kinetic data was evaluated using GraFit software.
as §1

Data set [1] in a line: Pharmacokinetic parameters in mice, plasma, brain and CSF after oral administration. In kind it is in vivo, mice (strain CD-1). Conditions: mice (CD-1), 30 mg/kg orally in 0.8% Methocel. The method, then: Three mice (strain CD-1) were administered orally 30 mg/kg of each test compound dissolved in 0.8% Methocel. Samples were taken at the time points 10 min, 0.5, 1, 2, 4 and 8 hr after test compound administration for plasma and brain collection.
The mice were anesthetized with Isoflurane. Approximate […] of each blood sample were collected via cardiac puncture for terminal bleeding into K2EDTA tubes. Blood samples were put on ice and centrifuged at 2000 g for 5 min to obtain plasma sample within 15 minutes. CSF collection: The animals were euthanized with pure CO2 inhalation. A mid line incision was made on the neck. The muscle under the skin was cut to expose the cisterna magna. The cisterna magna was penetrated with the sharp end of a capillary and CSF was collected via capillarity.
After CSF collection, a perfusion with 7x total mouse blood volume (approximate 15 ml) of ice-cold PBS (pH 7.4) was conducted via cardiac puncture before brain collection. A mid-line incision was made in the animal scalp. The brain was removed and rinsed with cold saline. Brain was placed into a screw-top tube and weighed. Brain samples were homogenized for 2 min with 3 volumes (v/w) of PBS (pH 7.4) and then analyzed with LC-MS/MS. The brain concentration was corrected with a dilution factor of 4 as following: Brain concentration=brain homogenate conc.×4, assuming 1 g wet brain tissue equals to 1 ml.
Plasma, brain and CSF samples were stored at approximately −80° C. until analysis.
For plasma samples: An aliquot of 20 μl sample was added with 200 μ IS (Diclofenac, 200 ng/mL) in ACN, the mixture was vortexed for 2 min and centrifuged at 12.000 rpm for 5 min. 1 μl supernatant was injected for LC-MS/MS analysis.
For diluted plasma samples: An aliquot of 4 μl sample was added with 16 μl blank plasma, mixed well, added with 200 μl IS (Diclofenac, 200 ng/ml) in ACN.
For Brain samples: Brain tissue was homogenized for 2 min with 3 volumes (v/w) of PBS. An aliquot of 20 μl sample was added with 200 μl IS (Diclofenac, 200 ng/ml) in ACN, the mixture was vortexed for 2 min and centrifuged at 12000 rpm for 5 min. 1 μl supernatant was injected for LC-MS/MS analysis.
For CSF samples: The CSF sample was added with corresponding 20 fold volume of IS (Diclofenac, 200 ng/ml) in ACN, the mixture was vortexed for 2 min. 3 μl supernatant was injected for LC-MS/MS analysis.

pKi: −log10 of the molar value.

hQPCTL, sequence (Q9NXS2 whole entry): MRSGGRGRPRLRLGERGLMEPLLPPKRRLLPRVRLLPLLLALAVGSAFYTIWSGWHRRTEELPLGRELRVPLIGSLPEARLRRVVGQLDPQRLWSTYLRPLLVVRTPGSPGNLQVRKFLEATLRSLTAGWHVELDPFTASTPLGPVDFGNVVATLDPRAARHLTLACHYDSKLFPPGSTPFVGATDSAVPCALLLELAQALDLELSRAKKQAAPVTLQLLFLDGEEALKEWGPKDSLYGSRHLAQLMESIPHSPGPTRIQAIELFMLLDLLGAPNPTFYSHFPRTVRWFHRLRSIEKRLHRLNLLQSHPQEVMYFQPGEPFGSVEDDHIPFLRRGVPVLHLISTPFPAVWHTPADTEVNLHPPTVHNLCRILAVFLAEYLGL
hQC, sequence (Q16769 29-361): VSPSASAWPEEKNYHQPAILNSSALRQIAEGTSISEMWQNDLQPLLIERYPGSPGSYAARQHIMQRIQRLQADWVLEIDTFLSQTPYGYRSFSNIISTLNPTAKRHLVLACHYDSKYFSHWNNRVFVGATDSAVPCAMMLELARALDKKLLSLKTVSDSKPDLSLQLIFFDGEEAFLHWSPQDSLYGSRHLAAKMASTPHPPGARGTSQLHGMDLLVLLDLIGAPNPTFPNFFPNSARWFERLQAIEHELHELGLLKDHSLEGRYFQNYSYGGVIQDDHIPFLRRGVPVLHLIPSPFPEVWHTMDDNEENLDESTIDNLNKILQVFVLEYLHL

In general, pKi refers to the Ki on a negative log10 scale, so that one unit is a factor of ten. For `O=C1CC(c2ccccc2)N1c1ccc2[nH]cnc2c1` (racemic) [Example 1, 1-(1H-benzo[d]imidazol-5-yl)-4-phenylazetidin-2-one], the pKi on hQPCTL is 7.48; at hQC, 6.77.
Turning to `COc1cc(F)c(C2CC(=O)N2c2ccc3nc[nH]c3c2)c(F)c1` (racemic) [Example 4, 1-(1H-benzo[d]imidazol-5-yl)-4-(2,6-difluoro-4-methoxyphenyl)azetidin-2-one], at hQPCTL, the pKi was 8.60. For the same molecule, in data set [1], the blood-brain-barrier crossing behaviour result was “good” and the “AUC-values in the brain” value is reported as “good”. Also, at hQC, the pKi is 8.07.
On to `O=C1C[C@H](c2ccccc2)N1c1ccc2nc[nH]c2c1` [Example 2, (R)-1-(1H-benzo[d]imidazol-6-yl)-4-phenylazetidin-2-one], for which the figures for the pKi at hQPCTL and on hQC were 8.16 and 7.68, respectively.
For orientation: melting point means the temperature of the solid-liquid transition. `O=C1C[C@H](c2ccc(OCCC(F)F)cc2F)N1c1ccc2[nH]cnc2c1` [Example 5, (R)-4-(4-(3,3-difluoropropoxy)-2-fluorophenyl)-1-(1H-benzo[d]imidazol-5-yl)azetidin-2-one]: the melting point lay within 150 to 155 °C. Besides, the pKi at hQPCTL is 9.07. Moreover, in data set [1], the blood-brain-barrier crossing behaviour result was “good” and the “AUC-values in the brain” value is “good”. In addition, the pKi at hQC was 8.48.
Take `O=C1C[C@@H](c2ccc(OCCC(F)F)cc2F)N1c1ccc2[nH]cnc2c1` [Example 6, (S)-4-(4-(3,3-difluoropropoxy)-2-fluorophenyl)-1-(1H-benzo[d]imidazol-5-yl)azetidin-2-one]: the melting point lay within 137 to 142 °C.
With `O=C1C[C@H](c2ccc(OCCC(F)F)c(F)c2F)N1c1ccc2[nH]cnc2c1` [Example 7, (R)-4-(4-(3,3-difluoropropoxy)-2,3-difluorophenyl)-1-(1H-benzo[d]imidazol-5-yl)azetidin-2-one], the melting point was in the range of 165 to 170 °C. Besides, the negative-log Ki (pKi) at hQPCTL was 8.96. For the same molecule, in data set [1], the blood-brain-barrier crossing behaviour result was “good” and the “AUC-values in the brain” value was “good”. Also, the pKi at hQC was 8.62.
With `O=C1C[C@@H](c2ccc(OCCC(F)F)c(F)c2F)N1c1ccc2[nH]cnc2c1` [Example 8, (S)-4-(4-(3,3-difluoropropoxy)-2,3-difluorophenyl)-1-(1H-benzo[d]imidazol-5-yl)azetidin-2-one], the melting point lay in the range of 148 to 153 °C.
As to `O=C1C[C@H](c2c(F)cc(OCCC(F)F)cc2F)N1c1ccc2[nH]cnc2c1` [Example 9, (R)-4-(4-(3,3-difluoropropoxy)-2,6-difluorophenyl)-1-(1H-benzo[d]imidazol-5-yl)azetidin-2-one], in data set [1], the blood-brain-barrier crossing behaviour result is listed as “good” and the “AUC-values in the brain” value is “good”.
As for `CC(F)(F)COc1ccc([C@H]2CC(=O)N2c2ccc3[nH]cnc3c2)c(F)c1` [Example 11, (R)-4-(4-(2,2-difluoropropoxy)-2-fluorophenyl)-1-(1H-benzo[d]imidazol-5-yl)azetidin-2-one], the melting point fell in the range of 165 to 170 °C. At hQPCTL, the pKi is 8.89. Besides, in data set [1], the blood-brain-barrier crossing behaviour result is “good” and the “AUC-values in the brain” value is “good”. Besides, the pKi at hQC was 8.42.
Turning to `CC(F)(F)COc1ccc([C@@H]2CC(=O)N2c2ccc3[nH]cnc3c2)c(F)c1` [Example 12, (S)-4-(4-(2,2-difluoropropoxy)-2-fluorophenyl)-1-(1H-benzo[d]imidazol-5-yl)azetidin-2-one], the melting point fell in the range of 203 to 208 °C.
Consider `CC(F)(F)COc1ccc([C@H]2CC(=O)N2c2ccc3[nH]cnc3c2)c(F)c1F` [Example 13, (R)-4-(4-(2,2-difluoropropoxy)-2,3-difluorophenyl)-1-(1H-benzo[d]imidazol-5-yl)azetidin-2-one], for which the melting point was 173 to 177 °C. For the same molecule, the pKi at hQPCTL is 8.70. In data set [1], the blood-brain-barrier crossing behaviour entry is on record as “good” and the “AUC-values in the brain” value is recorded as “good”. Moreover, the pKi on hQC was 8.64.
On to `CC(F)(F)COc1ccc([C@@H]2CC(=O)N2c2ccc3[nH]cnc3c2)c(F)c1F` [Example 14, (S)-4-(4-(2,2-difluoropropoxy)-2,3-difluorophenyl)-1-(1H-benzo[d]imidazol-5-yl)azetidin-2-one], for which the melting point was in the range of 170 to 174 °C.
`CC(F)(F)COc1cc(F)c([C@H]2CC(=O)N2c2ccc3[nH]cnc3c2)c(F)c1` [Example 15, (R)-4-(4-(2,2-difluoropropoxy)-2,6-difluorophenyl)-1-(1H-benzo[d]imidazol-5-yl)azetidin-2-one] showed a melting point of 158 to 162 °C. The pKi at hQPCTL was 9.52. In data set [1], the blood-brain-barrier crossing behaviour entry was “good” and the “AUC-values in the brain” value is “good”. On hQC, the pKi is 8.44.
As to `CC(F)(F)COc1cc(F)c([C@@H]2CC(=O)N2c2ccc3[nH]cnc3c2)c(F)c1` [Example 16, (S)-4-(4-(2,2-difluoropropoxy)-2,6-difluorophenyl)-1-(1H-benzo[d]imidazol-5-yl)azetidin-2-one], the melting point lay within 163 to 166 °C.
